Assay results: publication PMC10051705, “Leishmanicidal Activity of Guanidine Derivatives against Leishmania infantum” (Tropical Medicine and Infectious Disease, 2023)
Marks after values point to notes of the source that are not given here.

Key:
[1] = tested on: L. infantum axenic amastigotes; test: apoptosis/necrosis profiling, annexin V/PI staining, axenic amastigotes; type: cell-based, Leishmania infantum
Description: To evaluate both apoptosis and necrosis, promastigote forms of L. infantum in the log phase of growth were incubated at several concentrations based on the IC50 values of LQOFG-2 (6.35; 12.7, 25.4, and 50.8 µM) LQOFG-6 (12.2, 24.4, 48.8 and 97.6 µM), and LQOFG-7 (11.65, 23.3, 46.6 and 93.2 µM), and AmB (1.5 and 6 µM) was used as the positive control. The plates were incubated for 24 h at 26 °C ± 1 °C in a B.O.D. incubator. After incubation, the promastigotes were washed three times in cold PBS, resuspended in binding buffer (10-mM HEPES, 140-mM NaCl, and 2.5-mM CaCl2, pH 7.4), and stained using a FITC Annexin V/Dead Cell Apoptosis Kit (BD Biosciences, San Jose, CA, USA) according to the manufacturer’s instructions. The stained cells were diluted and suspended in an Annexin V binding buffer (BD Biosciences, San Jose, CA, USA). Annexin V-FITC/propidium iodide (PI)-stained cells were analyzed using a BD FACSCanto II flow cytometer (BD Biosciences, San Jose, CA, USA). The raw data were analyzed using FlowJo 10.0.7 software (TreeStar Inc., Ashland, OR, USA).
To evaluate both apoptosis and necrosis of the amastigote-like forms of L. infantum, the protocol was followed. In each well, amastigotes were treated with the guanidine compounds and controls.

[2] = tested on: L. infantum axenic amastigotes; test: axenic amastigote inhibition assay (MTT); type: cell-based; conditions: Leishmania infantum, 24 h; for EC50: 37 °C, pH 5.5, MTT
monocytes in PBMCs = test: nitrite assay (Griess reaction) in PBMC/monocytes infected or not with L. infantum; type: cell-based, human; conditions: for nitrite production: compound at 1× EC50, 24 h
Description: To perform the nitrite assay, PBMCs were obtained from five healthy volunteers (3 males, mean age 28.67 ± 2.96; and 2 females, mean age 28.50 ± 0.5) from João Pessoa, PB Brazil. Briefly, peripheral blood was diluted 1:1 with phosphate-buffered saline (PBS) and slowly layered over using Ficoll® Paque PLUS (GE Healthcare, Waukesha, WI, USA). Tubes were centrifuged at 400× g for 40 min at 20 °C. After centrifugation, PBMCs were harvested, washed three times with PBS, and resuspended in RPMI medium supplemented with antibiotics (penicillin 200 U/mL and streptomycin 0.1 mg/mL), 1 mM l-glutamine, and 10% inactivated human serum. Cell viability was assessed using a trypan blue dye exclusion assay. Cells were counted using a hemocytometer.
Promastigotes were prepared as previously described. Briefly, to confirm the infection, the L. infantum promastigotes were labeled with carboxyfluorescein diacetate succinimidyl ester (CFSE) (CellTrace ™ CFSE Cell Proliferation Kit; Eugene, OR, USA). The suspension was incubated for 15 min at 5% CO2, 37 °C, and washed three times with PBS containing 10% inactivated FBS producing CFSE-labeled L. infantum, which was added to PBMCs. The infection ratio was set at 1:10 (monocyte: L. infantum) for 3 h. After the infection, cells were washed three times with PBS supplemented with 10% FBS.
The plates were incubated for 24 h in a 5% CO2 incubator at 37 °C. The plates were centrifuged at 200× g for 8 min at 4 °C, and the supernatant was collected to measure reactive nitrogen production. CD14 surface antibody (PERCP-Cy5.5; clone MΦP9) was used for monocyte labeling (Figure S1). After adding the antibody, the plate was incubated at 4 °C for 15 min, protected from light. The cells were washed with ice-cold PBS buffer. The plate was centrifuged at 200× g again for 10 min at 4 °C. The supernatant was removed, the cells were resuspended in 100 µL of PBS buffer and 100 µL of 4% formaldehyde solution, then read on a flow cytometer (BD FACSCanto II, BD Biosciences, San Jose, CA, USA). FlowJo v.10.8.1 software was used to analyze the raw data. After obtaining PBMC, the cells were plated and incubated with LQOFG-7 and AmB at a concentration of 1× the EC50 value, with media or lipopolysaccharide (LPS) stimulus (lipopolysaccharide derived from Escherichia coli, Sigma-Aldrich O111:B4) at 100 ng/mL [26, 27, 28]. The culture supernatants from those infected and non-infected were evaluated for the stable end-product of reactive nitrogen species (NO, nitrates, and nitrites) using the Griess reaction, according to the Cayman Chemical instruction manual (Cayman Chemical, Ann Arbor, MI, USA). The nitrite level was determined by measuring the absorbance at a wavelength of 540 nm using a microplate reader (BioTek-ELx800).

[3] = in vitro cytotoxicity in PBMC (MTT); type: cell-based, human; conditions: both sexes, human, peripheral blood mononuclear cells (PBMCs), human PBMC, 24 h, MTT
Description: In vitro cytotoxicity was evaluated using peripheral blood mononuclear cells (PBMCs) collected from three healthy volunteers (2 males, mean age 33; and 1 person). PBMCs were separated by density gradient using Ficoll Paque PLUS (GE Healthcare, USA), pelleted by centrifugation (400× g for 40 min), and resuspended in RPMI 1640 medium, then supplemented with 10% fetal bovine serum and 1% antibiotic solution (penicillin 5000 Units/mL + streptomycin 5000 μg/mL). After 24 h of treatment, cell viability was evaluated by the modified colorimetric method based on the tetrazolium dye MTT (3-(4,5-dimethylthiazol-2-yl)-2,5- diphenyltetrazolium bromide). The MTT assay was used for in vitro cytotoxicity as previously described with the following modifications: cells were exposed to serially diluted concentrations of LQOFG-2, LQOFG-6, LQOFG-7 (1000 to 7.8 µM), and AmB (100 to 0.78 µM). The plates were kept at 37 °C for 24 h. MTT (5 mg/mL) was added and incubated for 4 h at 37 °C, after which the plates were centrifuged, the supernatant was discarded, and DMSO was added, leaving the plates under stirring to solubilize the formazan salts. Absorbance was measured at 540 nm using a plate reader (ELx800; Curitiba, PR, Brazil). The mean percentage of viable cells was calculated relative to the untreated control.

Row | SMILES | % cells, Early Apoptosis (AV+, PI−) ([1]; 1 × EC50, 24 h) | % cells, Late Apoptosis (AV+, PI+) ([1]; 1 × EC50, 24 h) | % cells, Necrosis (AV−, PI+) ([1]; 1 × EC50, 24 h) | % cells, Early Apoptosis (AV+, PI−) ([1]; 4 × EC50, 24 h) | % cells, Late Apoptosis (AV+, PI+) ([1]; 4 × EC50, 24 h) | % cells, Necrosis (AV−, PI+) ([1]; 4 × EC50, 24 h) | EC50 [2] | CC50 at 24 h [3] | also measured
1 | C[C@@H]1[C@H](O)[C@@H](C)/C=C/C=C/C=C/C=C/C=C/C=C/C=C/[C@H](O[C@@H]2O[C@H](C)[C@@H](O)[C@H](N)[C@@H]2O)C[C@@H]2O[C@](O)(C[C@@H](O)C[C@@H](O)[C@H](O)CC[C@@H](O)C[C@@H](O)CC(=O)O[C@H]1C)C[C@H](O)[C@H]2C(=O)O [Amphotericin B, reference compound] | 4.73 ± 0.97% | 57.50 ± 1.72 ^d % | 11.52 ± 1.89% | 0.60 ± 0.42% | 97.87 ± 1.01 ^d % | 0.96 ± 0.33 ^d % | 0.3 µM | 53.9 ± 3.59 µM | % cells, Late Apoptosis (AV+, PI+) ([1]; 1 × EC50, 24 h, listed as AmB): 57.50 ± 1.72%; % cells, Late Apoptosis (AV+, PI+) ([1]; 4 × EC50, 24 h, listed as AmB): 97.87 ± 1.01%; nitrite production (monocytes in PBMCs; monocytes infected with L. infantum, LPS-activated (100 ng/mL)): 13.6 ± 4.25 µM; increase in nitrite production (in words) (monocytes in PBMCs; monocytes infected with L. infantum, treatment at EC50): no significant increase
2 | O=C(/N=C(/NCc1ccccc1)Nc1ccc(I)cc1)c1ccccc1 [LQOFG-7, (Z)-N-((benzylamine)((4-iodophenyl)amino)methylene)benzamide] | 5.84 ± 0.57 ^b % | 44.20 ± 1.01 ^d % | 13.53 ± 0.32% | 8.01 ± 0.14 ^d % | 63.27 ± 0.59 ^d % | 12.27 ± 0.48% | 18.6 ± 1.23 µM | 745.5 ± 3.58 µM | % cells, Early Apoptosis (AV+, PI−) ([1]; 0.5 × EC50, 24 h): 5.56 ± 0.46 ^a %; % cells, Late Apoptosis (AV+, PI+) ([1]; 0.5 × EC50, 24 h): 35.53 ± 3.13 ^c %; % cells, Necrosis (AV−, PI+) ([1]; 0.5 × EC50, 24 h): 9.83 ± 1.27%; % cells, Early Apoptosis (AV+, PI−) ([1]; 2 × EC50, 24 h): 10.02 ± 1.53 ^d %; % cells, Late Apoptosis (AV+, PI+) ([1]; 2 × EC50, 24 h): 36.70 ± 10.35 ^d %; % cells, Necrosis (AV−, PI+) ([1]; 2 × EC50, 24 h): 5.63 ± 1.24%; inhibition at 31.2 µM ([2]; at 31.2 µM, read-out: inhibition of axenic amastigotes compared to the control (untreated)): 58%; nitrite production (monocytes in PBMCs; monocytes infected with L. infantum, not LPS-activated, untreated infected 0.367 ± 1.48 µM): 13.5 ± 1.30 µM; nitrite production (monocytes in PBMCs; uninfected human monocytes (PBMC), untreated control 3.81 ± 1.36 µM): 10.5 ± 3.58 µM
